Measurements from publication PMC3961306, “Comparison of the Cancer Gene Targeting and Biochemical Selectivities of All Targeted Kinase Inhibitors Approved for Clinical Use” (PLoS ONE, 2014).
Like-named read-outs stand apart in the source and are kept apart here.

Tests used:
Assay in all cases: Kinase profiling in a biochemical assay panel (mobility shift assays and ELISA), %-inhibition at 1 μM; selectivity entropy
[1] = molecular target: panel of more than 300 wild-type and mutant kinases (313 kinase panel) (Homo sapiens, UniProt P50613)
[2] = molecular target: panel of more than 300 wild-type and mutant kinases (313 kinase panel) (Homo sapiens, UniProt Q8IY84)
[3] = molecular target: T1, panel of more than 300 wild-type and mutant kinases (313 kinase panel) (Homo sapiens, UniProt P52333)
T1 sequence (P52333 1-1124): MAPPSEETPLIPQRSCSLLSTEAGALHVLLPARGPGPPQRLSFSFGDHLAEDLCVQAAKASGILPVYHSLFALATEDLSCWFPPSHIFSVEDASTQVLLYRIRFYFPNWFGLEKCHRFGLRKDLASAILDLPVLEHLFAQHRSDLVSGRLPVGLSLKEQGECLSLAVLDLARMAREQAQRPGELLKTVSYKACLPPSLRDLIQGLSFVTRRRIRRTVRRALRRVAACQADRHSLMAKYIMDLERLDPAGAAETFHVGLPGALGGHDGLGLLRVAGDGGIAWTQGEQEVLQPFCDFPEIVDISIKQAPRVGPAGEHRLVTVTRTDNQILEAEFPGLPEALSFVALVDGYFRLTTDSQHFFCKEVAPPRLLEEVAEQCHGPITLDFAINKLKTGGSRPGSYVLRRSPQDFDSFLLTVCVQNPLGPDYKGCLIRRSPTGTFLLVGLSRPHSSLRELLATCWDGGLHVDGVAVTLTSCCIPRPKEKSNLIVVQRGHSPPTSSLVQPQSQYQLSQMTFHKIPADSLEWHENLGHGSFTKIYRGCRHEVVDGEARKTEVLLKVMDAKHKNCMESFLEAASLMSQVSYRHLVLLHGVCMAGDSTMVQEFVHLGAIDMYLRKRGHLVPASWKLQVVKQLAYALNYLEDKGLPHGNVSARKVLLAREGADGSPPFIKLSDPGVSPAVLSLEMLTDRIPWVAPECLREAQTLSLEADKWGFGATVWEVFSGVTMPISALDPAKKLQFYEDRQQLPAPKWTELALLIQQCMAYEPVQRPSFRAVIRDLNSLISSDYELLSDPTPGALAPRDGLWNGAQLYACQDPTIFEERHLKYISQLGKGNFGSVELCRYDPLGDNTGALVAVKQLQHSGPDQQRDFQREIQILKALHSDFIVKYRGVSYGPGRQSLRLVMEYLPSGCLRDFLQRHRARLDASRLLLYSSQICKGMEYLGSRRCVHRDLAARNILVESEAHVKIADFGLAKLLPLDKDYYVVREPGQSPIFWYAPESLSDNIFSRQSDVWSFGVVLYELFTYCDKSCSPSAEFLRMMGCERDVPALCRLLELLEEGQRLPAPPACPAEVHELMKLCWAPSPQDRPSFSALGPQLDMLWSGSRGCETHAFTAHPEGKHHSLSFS

[4] = molecular target: panel of more than 300 wild-type and mutant kinases (313 kinase panel) (Homo sapiens, UniProt P53667)
[5] = molecular target: panel of more than 300 wild-type and mutant kinases (313 kinase panel) (Homo sapiens, UniProt P10721, V560G)
[6] = molecular target: panel of more than 300 wild-type and mutant kinases (313 kinase panel) (Homo sapiens, UniProt P41240)
[7] = molecular target: panel of more than 300 wild-type and mutant kinases (313 kinase panel) (Homo sapiens, UniProt P29597)
[8] = molecular target: panel of more than 300 wild-type and mutant kinases (313 kinase panel) (Homo sapiens, UniProt P36894)
[9] = molecular target: panel of more than 300 wild-type and mutant kinases (313 kinase panel) (Homo sapiens, UniProt P19525)
[10] = molecular target: panel of more than 300 wild-type and mutant kinases (313 kinase panel) (Homo sapiens, UniProt Q16816)
[11] = molecular target: panel of more than 300 wild-type and mutant kinases (313 kinase panel) (Homo sapiens, UniProt O75582)
[12] = molecular target: panel of more than 300 wild-type and mutant kinases (313 kinase panel) (Homo sapiens, UniProt P11309)
[13] = molecular target: panel of more than 300 wild-type and mutant kinases (313 kinase panel) (Homo sapiens, UniProt P54756)
[14] = kinase CDK7/CycH/MAT1, 1 μM compound
[15] = kinase KIT(V560G), compound at 1 μM

Chain of panel of more than 300 wild-type and mutant kinases (313 kinase panel) (Homo sapiens, UniProt Q16816) (Q16816 whole entry, change not shown): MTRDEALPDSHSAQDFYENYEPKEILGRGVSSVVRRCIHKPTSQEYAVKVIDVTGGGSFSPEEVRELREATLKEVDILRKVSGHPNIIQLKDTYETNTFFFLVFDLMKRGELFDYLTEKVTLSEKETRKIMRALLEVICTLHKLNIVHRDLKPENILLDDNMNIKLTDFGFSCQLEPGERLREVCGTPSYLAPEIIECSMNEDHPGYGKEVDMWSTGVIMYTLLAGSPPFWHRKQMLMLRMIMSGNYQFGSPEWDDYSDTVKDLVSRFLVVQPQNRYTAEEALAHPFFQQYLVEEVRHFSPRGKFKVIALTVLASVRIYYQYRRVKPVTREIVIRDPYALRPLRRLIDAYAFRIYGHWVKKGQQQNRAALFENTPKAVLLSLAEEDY
Chain of panel of more than 300 wild-type and mutant kinases (313 kinase panel) (Homo sapiens, UniProt P29597) (P29597 whole entry, change not shown): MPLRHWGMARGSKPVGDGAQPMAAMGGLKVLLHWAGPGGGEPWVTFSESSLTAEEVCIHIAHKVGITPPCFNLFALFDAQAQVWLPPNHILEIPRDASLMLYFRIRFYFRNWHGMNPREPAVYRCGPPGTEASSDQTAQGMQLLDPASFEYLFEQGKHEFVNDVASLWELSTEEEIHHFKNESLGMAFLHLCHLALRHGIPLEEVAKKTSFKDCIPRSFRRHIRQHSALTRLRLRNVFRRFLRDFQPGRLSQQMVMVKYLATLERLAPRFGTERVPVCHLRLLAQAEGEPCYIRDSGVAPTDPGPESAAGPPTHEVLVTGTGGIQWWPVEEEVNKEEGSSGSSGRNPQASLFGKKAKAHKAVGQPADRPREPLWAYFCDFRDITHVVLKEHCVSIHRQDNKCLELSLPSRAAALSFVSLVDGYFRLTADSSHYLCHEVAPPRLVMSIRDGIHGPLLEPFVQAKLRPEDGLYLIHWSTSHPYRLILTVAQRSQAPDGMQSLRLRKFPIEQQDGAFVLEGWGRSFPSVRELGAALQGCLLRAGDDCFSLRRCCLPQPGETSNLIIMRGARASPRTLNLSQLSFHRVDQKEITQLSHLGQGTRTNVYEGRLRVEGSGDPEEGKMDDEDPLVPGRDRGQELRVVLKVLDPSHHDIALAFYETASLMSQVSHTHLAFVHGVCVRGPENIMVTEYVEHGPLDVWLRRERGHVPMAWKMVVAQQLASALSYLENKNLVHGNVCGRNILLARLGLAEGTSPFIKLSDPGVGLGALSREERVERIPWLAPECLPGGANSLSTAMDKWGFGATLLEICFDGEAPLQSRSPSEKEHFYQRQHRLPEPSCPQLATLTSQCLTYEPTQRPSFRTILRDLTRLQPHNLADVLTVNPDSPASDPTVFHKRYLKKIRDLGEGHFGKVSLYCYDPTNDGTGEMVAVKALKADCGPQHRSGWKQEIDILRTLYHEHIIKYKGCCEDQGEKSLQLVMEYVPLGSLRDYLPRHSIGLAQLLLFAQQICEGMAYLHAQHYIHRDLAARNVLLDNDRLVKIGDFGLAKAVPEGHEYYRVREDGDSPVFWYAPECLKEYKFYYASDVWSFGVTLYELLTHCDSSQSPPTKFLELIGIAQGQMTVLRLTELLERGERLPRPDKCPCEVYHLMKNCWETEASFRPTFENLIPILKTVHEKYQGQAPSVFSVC
Chain of panel of more than 300 wild-type and mutant kinases (313 kinase panel) (Homo sapiens, UniProt P41240) (P41240 whole entry, change not shown): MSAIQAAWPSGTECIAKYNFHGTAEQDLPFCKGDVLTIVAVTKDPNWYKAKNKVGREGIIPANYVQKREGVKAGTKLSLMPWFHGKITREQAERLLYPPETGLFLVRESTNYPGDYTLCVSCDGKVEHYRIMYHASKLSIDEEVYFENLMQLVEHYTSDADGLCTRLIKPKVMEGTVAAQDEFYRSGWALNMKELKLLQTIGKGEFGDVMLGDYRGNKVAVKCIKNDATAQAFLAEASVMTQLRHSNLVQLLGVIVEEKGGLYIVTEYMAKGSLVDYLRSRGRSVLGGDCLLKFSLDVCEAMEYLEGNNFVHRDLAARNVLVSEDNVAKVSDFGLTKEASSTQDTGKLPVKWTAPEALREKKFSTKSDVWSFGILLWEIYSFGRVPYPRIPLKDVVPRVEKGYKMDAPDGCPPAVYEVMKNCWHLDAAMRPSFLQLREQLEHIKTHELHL
Chain of panel of more than 300 wild-type and mutant kinases (313 kinase panel) (Homo sapiens, UniProt P50613) (P50613 whole entry, change not shown): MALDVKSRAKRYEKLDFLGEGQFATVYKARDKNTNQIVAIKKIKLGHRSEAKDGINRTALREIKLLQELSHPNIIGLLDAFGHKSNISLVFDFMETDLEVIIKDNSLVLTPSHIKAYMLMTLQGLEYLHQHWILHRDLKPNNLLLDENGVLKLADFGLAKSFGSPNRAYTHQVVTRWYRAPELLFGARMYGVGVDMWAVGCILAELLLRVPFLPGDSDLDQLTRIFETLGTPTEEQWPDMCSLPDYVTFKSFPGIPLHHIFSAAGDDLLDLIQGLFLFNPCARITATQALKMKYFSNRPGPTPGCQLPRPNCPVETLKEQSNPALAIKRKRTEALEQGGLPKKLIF
Chain of panel of more than 300 wild-type and mutant kinases (313 kinase panel) (Homo sapiens, UniProt P10721, V560G) (P10721 26-976 V560G): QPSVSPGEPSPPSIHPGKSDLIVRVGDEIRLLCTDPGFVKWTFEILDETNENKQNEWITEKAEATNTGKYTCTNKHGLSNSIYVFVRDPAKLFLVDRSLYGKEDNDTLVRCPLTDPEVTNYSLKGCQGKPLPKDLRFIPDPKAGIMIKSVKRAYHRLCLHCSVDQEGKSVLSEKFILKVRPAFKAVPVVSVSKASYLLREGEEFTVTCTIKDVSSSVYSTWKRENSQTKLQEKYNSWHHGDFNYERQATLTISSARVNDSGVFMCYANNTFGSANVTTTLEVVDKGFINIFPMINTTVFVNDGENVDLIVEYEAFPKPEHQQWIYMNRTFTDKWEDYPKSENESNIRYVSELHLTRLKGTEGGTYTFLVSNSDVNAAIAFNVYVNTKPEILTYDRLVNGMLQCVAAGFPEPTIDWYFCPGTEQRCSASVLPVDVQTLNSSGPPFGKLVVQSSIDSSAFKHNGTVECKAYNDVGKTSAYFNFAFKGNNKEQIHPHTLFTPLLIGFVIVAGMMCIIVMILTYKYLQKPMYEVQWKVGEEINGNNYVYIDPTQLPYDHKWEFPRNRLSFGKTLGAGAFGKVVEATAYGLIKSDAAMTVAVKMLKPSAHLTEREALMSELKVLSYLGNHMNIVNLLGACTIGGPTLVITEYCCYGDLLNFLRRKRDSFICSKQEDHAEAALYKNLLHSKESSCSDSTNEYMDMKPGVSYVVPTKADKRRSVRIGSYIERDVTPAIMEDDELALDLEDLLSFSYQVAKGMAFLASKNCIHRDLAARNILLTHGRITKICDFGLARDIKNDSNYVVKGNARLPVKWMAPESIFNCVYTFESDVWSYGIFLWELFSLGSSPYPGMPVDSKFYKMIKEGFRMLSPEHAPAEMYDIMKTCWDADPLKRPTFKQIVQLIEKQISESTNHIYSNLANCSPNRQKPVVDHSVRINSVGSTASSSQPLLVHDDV

SMILES | %-inhibition, CDK7/CycH/MAT1 [1, 14] | %-inhibition of MGC42105 ([2]; kinase MGC42105, 1 μM) | %-inhibition of JAK3 ([3]; kinase JAK3, compound at 1 μM) | %-inhibition of LIMK1 ([4]; kinase LIMK1, compound at 1 μM) | %-inhibition of CSK ([6]; kinase CSK, compound at 1 μM) | %-inhibition of TYK2 ([7]; kinase TYK2, compound at 1 μM) | %-inhibition, BMPR1A ([8]; kinase BMPR1A, 1 μM compound) | %-inhibition of PKR ([9]; kinase PKR, 1 μM) | %-inhibition of PHKG1 ([10]; kinase PHKG1, 1 μM) | %-inhibition of MSK1 ([11]; kinase MSK1, 1 μM) | %-inhibition of PIM1 ([12]; kinase PIM1, 1 μM) | further results
COc1cc(Nc2c(C#N)cnc3cc(OCCCN4CCN(C)CC4)c(OC)cc23)c(Cl)cc1Cl [bosutinib] | -4.35% | 32% | 67% | -7% | 84% | -3.37% | 1.74% | -13% | 49% | – | – | %-inhibition of KIT(V560G) [5, 15]: 7%
CC(C)(C)c1nc(-c2cccc(NS(=O)(=O)c3c(F)cccc3F)c2F)c(-c2ccnc(N)n2)s1 [dabrafenib] | – | -8.54% | 22% | 100% | 98% | 10% | 17% | – | -0.59% | 0.0759% | – | –
Cc1nc(Nc2ncc(C(=O)Nc3c(C)cccc3Cl)s2)cc(N2CCN(CCO)CC2)n1 [dasatinib] | – | -0.563% | – | – | – | – | – | 3% | – | – | – | –
C#Cc1cccc(Nc2ncnc3cc(OCCOC)c(OCCOC)cc23)c1 [erlotinib] | – | – | – | – | – | – | – | – | – | – | – | %-inhibition, CDK7/CycH/MAT1 ([1]; 1 µM): 1.22%; %-inhibition of MGC42105 ([2]; 1 µM): 4%; %-inhibition of JAK3 ([3]; 1 µM): 55%; %-inhibition of LIMK1 ([4]; 1 µM): 0.0961%; %-inhibition of KIT(V560G) ([5]; 1 µM): 17%; %-inhibition of TYK2 ([7]; 1 µM): -2.7%; %-inhibition of PIM1 ([12]; 1 µM): 6%; %-inhibition, BMPR1A [8]: 12%; %-inhibition of MSK1 ([11]; 1 µM): 9%; %-inhibition of EPHA5 ([13]; 1 µM): 38%; %-inhibition of PKR ([9]; 1 µM): 22%; %-inhibition of PHKG1 ([10]; 1 µM): 5%
CS(=O)(=O)CCNCc1ccc(-c2ccc3ncnc(Nc4ccc(OCc5cccc(F)c5)c(Cl)c4)c3c2)o1 [lapatinib] | 2% | – | -6% | -2.33% | – | -10% | – | -0.192% | 4.72% | 7% | 0.601% | %-inhibition of KIT(V560G) ([5]; 1 µM): 2.33%; %-inhibition of CSK ([6]; 1 µM): 1.88%; %-inhibition, BMPR1A [8]: 7.37%; %-inhibition of EPHA5 ([13]; kinase EPHA5, compound at 1 μM): 6%
Cc1cn(-c2cc(NC(=O)c3ccc(C)c(Nc4nccc(-c5cccnc5)n4)c3)cc(C(F)(F)F)c2)cn1 [nilotinib] | -2.34% | – | 2.15% | -18% | – | – | -22% | – | -8% | 2.48% | 8% | %-inhibition of MGC42105 ([2]; 1 µM): -48%; %-inhibition of CSK ([6]; 1 µM): 78%; %-inhibition of TYK2 ([7]; 1 µM): -1.71%; %-inhibition of EPHA5 ([13]; 1 µM): 93%; %-inhibition of PKR ([9]; 1 µM): 0%
Cc1ccc(Nc2nccc(N(C)c3ccc4c(C)n(C)nc4c3)n2)cc1S(N)(=O)=O [pazopanib] | 9% | 0.318% | 38% | – | 12% | 5.31% | -1.7% | – | 1.52% | 0.901% | -1.49% | %-inhibition of EPHA5 ([13]; kinase EPHA5, compound at 1 μM): 32%
Cc1ccc(C(=O)Nc2ccc(CN3CCN(C)CC3)c(C(F)(F)F)c2)cc1C#Cc1cnc2cccnn12 [ponatinib] | 9% | -5.68% | 98% | 68% | – | 66% | 6.48% | 19% | 5% | – | – | –
N#CC[C@H](C1CCCC1)n1cc(-c2ncnc3[nH]ccc23)cn1 [ruxolitinib] | – | -13% | – | 60% | -0.827% | – | 5.7% | -6% | – | 37% | -8% | %-inhibition, CDK7/CycH/MAT1 ([1]; 1 µM): 3.25%; %-inhibition of KIT(V560G) [5, 15]: -7%; %-inhibition of EPHA5 ([13]; 1 µM): 18%; %-inhibition of PHKG1 ([10]; 1 µM): 50%
CCN(CC)CCNC(=O)c1c(C)[nH]c(/C=C2\C(=O)Nc3ccc(F)cc32)c1C [sunitinib] | – | – | – | – | – | – | – | – | 95% | – | – | –
COc1cc2c(Nc3ccc(Br)cc3F)ncnc2cc1OCC1CCN(C)CC1 [vandetanib] | -4.26% | -17% | 2.34% | 12% | 68% | -7% | 46% | -1.09% | 68% | -0.384% | -9% | %-inhibition of EPHA5 ([13]; kinase EPHA5, compound at 1 μM): 89%
